In brackets after ≈: the same amount, converted by molar mass.
Columns and labels:
Assay type in all cases: cell-based, Mycobacterium tuberculosis
[1] = tested on: dprE12–TetON1 mutant (dprE1–dprE2 operon); settings: removal of anhydrotetracycline; OD580nm at day 10 relative to DMSO control
[2] = tested on: P01-resistant mutants of Mtb H37Rv
Mtb DprE1 Y314H mutant = tested on: Mtb DprE1 Y314H mutant
Mtb DprE1 Y314C mutant = tested on: Mtb DprE1 Y314C mutant
Mtb DprE1 N364S mutant = tested on: Mtb DprE1 N364S mutant
Mtb DprE1 P116S mutant = tested on: Mtb DprE1 P116S mutant

SMILES: C[C@H]1COC2(CCN(c3nc(=O)c4cc(C(F)(F)F)cc([N+](=O)[O-])c4s3)CC2)O1 [BTZ043, reference compound]
- effect of dprE1–dprE2 transcriptional repression on susceptibility / growth inhibition [1]: increase in susceptibility

SMILES: Cn1c(Cc2ccccc2C(F)(F)F)nc(C(=O)NCc2ccccc2)c(O)c1=O [Compound P01, N-Benzyl-5-hydroxy-1-methyl-6-oxo-2-(2-(trifluoromethyl)benzyl)-1,6-dihydropyrimidine-4-carboxamide]
- level of resistance of P01-resistant mutants compared with the parental strain [2]: more than 10 fold
- mutation frequency ([2]; at 10× MIC on solid medium): 7 × 10^–9
- MIC, DprE1 mutation Y314H (Mtb DprE1 Y314H mutant): >50 µM
- fold change of MIC, Y314H (Mtb DprE1 Y314H mutant): >16
- MIC, DprE1 mutation Y314C (Mtb DprE1 Y314C mutant): 25 µM (≈ 10.4 µg/mL)
- fold change of MIC, Y314C (Mtb DprE1 Y314C mutant): 8
- MIC, DprE1 mutation N364S (Mtb DprE1 N364S mutant): 2.34 µM (≈ 0.977 µg/mL)
- fold change of MIC, N364S (Mtb DprE1 N364S mutant): 0.75
- MIC, DprE1 mutation P116S (Mtb DprE1 P116S mutant): 18.8 µM (≈ 7.85 µg/mL)
- fold change of MIC, P116S (Mtb DprE1 P116S mutant): 6
- effect of dprE1–dprE2 transcriptional repression on susceptibility / growth inhibition [1]: more growth inhibition

SMILES: CCn1c(Cc2ccccc2C(F)(F)F)nc(C(=O)NCc2ccccc2)c(O)c1=O [Compound P04, N-Benzyl-1-ethyl-5-hydroxy-6-oxo-2-(2-(trifluoromethyl)benzyl)-1,6-dihydropyrimidine-4-carboxamide]
- effect of dprE1–dprE2 transcriptional repression on susceptibility / growth inhibition [1]: more growth inhibition

SMILES: CC(NC(=O)c1nc(Cc2ccccc2C(F)(F)F)n(C)c(=O)c1O)c1ccccc1 (stereo not shown) [Compound P13, 5-Hydroxy-1-methyl-6-oxo-N-(1-phenylethyl)-2-(2-(trifluoromethyl)benzyl)-1,6-dihydropyrimidine-4-carboxamide]
- effect of dprE1–dprE2 transcriptional repression on susceptibility / growth inhibition [1]: did not result in growth inhibition

SMILES: CCOC(=O)NC(=O)c1ccsc1NC(=O)c1nc2ccccc2s1 [TCA1, reference compound]
- effect of dprE1–dprE2 transcriptional repression on susceptibility / growth inhibition [1]: increase in susceptibility

SMILES: CC[C@@H](CO)NCCN[C@@H](CC)CO [ethambutol, reference compound]
- effect of dprE1–dprE2 transcriptional repression on susceptibility / growth inhibition [1]: equipotent efficacy
